One test addresses Cholinesterase (Homo sapiens, UniProt P06276).
The target of the next test is Acetylcholinesterase (Homo sapiens, UniProt P22303).

As a reminder, the Ki is a dissociation constant, usually derived from enzyme kinetics or from competition with a known ligand. The low end stands for tighter binding, the high end for weaker binding.

Sequence of Cholinesterase (P06276 whole entry): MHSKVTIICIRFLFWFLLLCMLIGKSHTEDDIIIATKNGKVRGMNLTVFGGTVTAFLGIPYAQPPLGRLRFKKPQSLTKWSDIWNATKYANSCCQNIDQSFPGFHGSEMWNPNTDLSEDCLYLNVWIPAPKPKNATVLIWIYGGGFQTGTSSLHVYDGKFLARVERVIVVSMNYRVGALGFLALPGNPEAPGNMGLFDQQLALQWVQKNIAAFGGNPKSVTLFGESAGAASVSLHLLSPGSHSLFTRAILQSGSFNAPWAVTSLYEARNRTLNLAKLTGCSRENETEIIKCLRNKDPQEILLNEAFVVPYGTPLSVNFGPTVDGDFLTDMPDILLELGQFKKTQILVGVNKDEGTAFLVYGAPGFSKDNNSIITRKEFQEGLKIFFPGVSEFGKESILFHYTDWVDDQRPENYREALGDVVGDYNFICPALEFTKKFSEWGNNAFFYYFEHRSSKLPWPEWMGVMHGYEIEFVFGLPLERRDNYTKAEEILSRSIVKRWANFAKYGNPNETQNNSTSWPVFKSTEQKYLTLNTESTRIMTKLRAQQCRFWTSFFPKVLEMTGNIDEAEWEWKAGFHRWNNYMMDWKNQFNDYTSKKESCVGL
Sequence of Acetylcholinesterase (P22303 whole entry): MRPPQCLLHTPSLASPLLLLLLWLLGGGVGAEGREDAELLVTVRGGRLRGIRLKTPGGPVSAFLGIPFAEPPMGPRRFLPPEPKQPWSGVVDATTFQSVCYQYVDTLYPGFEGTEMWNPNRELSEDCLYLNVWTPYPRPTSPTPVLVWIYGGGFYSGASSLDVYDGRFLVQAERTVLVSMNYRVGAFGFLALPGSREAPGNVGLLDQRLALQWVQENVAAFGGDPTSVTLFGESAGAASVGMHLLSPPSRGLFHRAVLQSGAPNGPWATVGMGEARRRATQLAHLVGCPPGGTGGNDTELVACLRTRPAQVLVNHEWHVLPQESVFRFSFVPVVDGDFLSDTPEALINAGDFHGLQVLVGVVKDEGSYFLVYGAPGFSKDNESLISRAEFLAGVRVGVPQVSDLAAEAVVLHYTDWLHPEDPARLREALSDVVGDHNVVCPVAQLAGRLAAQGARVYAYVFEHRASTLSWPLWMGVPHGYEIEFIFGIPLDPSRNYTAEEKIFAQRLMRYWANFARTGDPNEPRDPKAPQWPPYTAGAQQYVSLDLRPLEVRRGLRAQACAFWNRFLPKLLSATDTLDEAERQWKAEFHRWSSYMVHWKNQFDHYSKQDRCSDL

Consider `C/C=C1\C2C=C(C)C[C@]1(N)CC(NCCCCCCCNc1c3c(nc4ccccc14)CCCC3)C2(C)C` (stereo not given in full), for which the Ki on Cholinesterase is 20.8 nM; on Acetylcholinesterase, 16.5 nM.

With `C/C=C1\C2C=C(C)C[C@]1(N)CC(NCCCCCCCNc1c3c(nc4ccccc14)CCCC3)C2` (stereo not given in full), the inhibitory constant (Ki) on Cholinesterase came out at 30.8 nM; at Acetylcholinesterase it was 15.7 nM.

Regarding `C/C=C1\[C@H]2C=C(C)C[C@]1(N)c1ccc(=O)[nH]c1C2` [HUPERZINE A], the Ki on Cholinesterase is above 1000 nM.

The values are drawn from ChEMBL document CHEMBL1148525, “Discovery of huperzine A-tacrine hybrids as potent inhibitors of human cholinesterases targeting their midgorge recognition sites” (J Med Chem, 2006).
